US9399649B2, “Compounds for treating spinal muscular atrophy” (PTC Therapeutics Inc., priority 2012, dated 2016)

Columns and labels:
[1] = system: full length SMN2 minigene mRNA containing SMN2 exon 7; assay: SMN2 minigene mRNA splicing RT-qPCR assay in cultured cells; format: cell-based, human; conditions: Homo sapiens, HEK293-H; HEK293H cells stably transfected with SMN2-A minigene, 24 hours, 7-point concentration curve; concentration giving 1.5-fold full length SMN2 mRNA vs vehicle; read-out: EC1.5x for production of full length SMN2 mRNA
Method: The reverse transcription-quantitative PCR-based (RT-qPCR) assay is used to quantify the level of the full length SMN2 minigene mRNA containing SMN2 exon 7 in a HEK293H cell line stably transfected with said minigene and treated with a test compound.
HEK293H cells stably transfected with the SMN2-A minigene construct described above (10,000 cells/well) are seeded in 200 ut, of cell culture medium (DMEM plus 10% FBS, with 200 μg/mL hygromycin) in 96-well flat-bottom plates and the plate is immediately swirled to ensure proper dispersal of cells, forming an even monolayer of cells. Cells are allowed to attach for at least 4-6 hours. Test compounds are serially diluted 3.16-fold in 100% DMSO to generate a 7-point concentration curve. A solution of test compound (1 μL, 200× in DMSO) is added to each cell-containing well and the plate is incubated for 24 hours in a cell culture incubator (37° C., 5% CO2, 100% relative humidity). 2 replicates are prepared for each test compound concentration. The cells are then lysed in Cells-To-Ct lysis buffer and the lysate is stored at −80° C.
Primer SMN Forward A (SEQ ID NO. 1) hybridizes to a nucleotide sequence in exon 7 (nucleotide 22 to nucleotide 40), primer SMN Reverse A (SEQ ID NO. 2) hybridizes to a nucleotide sequence in the coding sequence of Firefly luciferase, SMN Probe A (SEQ ID NO. 3) hybridizes to a nucleotide sequence in exon 7 (nucleotide 50 to nucleotide 54) and exon 8 (nucleotide 1 to nucleotide 21). The combination of these three oligonucleotides detects only SMN1 or SMN2 minigenes (RT-qPCR) and will not detect endogenous SMN1 or SMN2 genes.
The SMN forward and reverse primers are used at final concentrations of 0.4 μM. The SMN probe is used at a final concentration of 0.15 μM. The GAPDH primers are used at final concentrations of 0.2 μM and the probe at 0.15 μM.
The SMN2-minigene GAPDH mix (15 μL total volume) is prepared by combining 7.5 μL of 2×RT-PCR buffer, 0.4 μL of 25×RT-PCR enzyme mix, 0.75 μL of 20×GAPDH primer-probe mix, 4.0075 μL of water, 2 μL of 10-fold diluted cell lysate, 0.06 μL of 100 μM SMN forward primer, 0.06 μL of 100 μM SMN reverse primer, and 0.225 μL of 100 μM SMN probe.
PCR is carried out at the following temperatures for the indicated time: Step 1: 48° C. (15 min); Step 2: 95° C. (10 min); Step 3: 95° C. (15 sec); Step 4: 60° C. (1 min); then repeat Steps 3 and 4 for a total of 40 cycles.
Each reaction mixture contains both SMN2-A minigene and GAPDH primersprobe sets (multiplex design), allowing simultaneous measurement of the levels of two transcripts.
Two SMN spliced products are generated from the SMN2 minigene. The first spliced product containing exon 7, corresponding to full length SMN2 mRNA, is referred to herein using the term “SMN2 minigene FL.” The second spliced product lacking exon 7 is referred to herein using the term “SMN2 minigene Δ7.”
The increase of SMN2 minigene FL mRNA relative to that in cells treated with vehicle control is determined from real-time PCR data using a modified ΔΔCt method (as described in Livak and Schmittgen, Methods, 2001, 25:402-8). The amplification efficiency (E) is calculated from the slope of the amplification curve for SMN2 minigene FL and GAPDH individually. The abundances of SMN2 minigene FL and GAPDH are then calculated as (1+E)^−Ct, where Ct is the threshold value for each amplicon. The abundance of SMN2 minigene FL is normalized to GAPDH abundance. The normalized SMN2 minigene FL abundance from test compound-treated samples is then divided by normalized SMN2 minigene FL abundance from vehicle-treated cells to determine the level of SMN2 FL mRNA relative to vehicle control.

Smn protein = Smn protein assay in cultured cells (SMN HTRF); format: cell-based, human; conditions: SMA patient fibroblast cells (GM03813), 48 hours, 7-point concentration data, relative to vehicle control
Method: The SMN HTRF (homogeneous time resolved fluorescence) assay is used to quantify the level of Smn protein in SMA patient fibroblast cells treated with test compounds.
Cells are thawed and cultured in DMEM-10% FBS for 72 hours. Cells are trypsinized, counted and re-suspended to a concentration of 25,000 cells/mL in DMEM-10% FBS. The cell suspensions are plated at 5,000 cells per well in a 96 well microtiter plate and incubated for 3 to 5 hours. […] Test compounds are serially diluted 3.16-fold in 100% DMSO to generate a 7-point concentration curve. 1 μL of test compound solution is transferred to cell-containing wells and cells are incubated for 48 hours in a cell culture incubator (37° C., 5% CO2, 100% relative humidity). Triplicate samples are set up for each test compound concentration. After 48 hours, the supernatant is removed from the wells and 25 μL of the RIPA lysis buffer, containing protease inhibitors, is added to the wells and incubated with shaking at room temperature for 1 hour. 25 μL of the diluent is added and then 35 μL of the resulting lysate is transferred to a 384-well plate, where each well contains 5 μL of the antibody solution (1:100 dilution of anti-SMN d2 and anti-SMN kryptate in SMN reconstitution buffer). The plate is centrifuged for 1 minute to bring the solution to the bottom of the wells, then incubated overnight at room temperature. Fluorescence for each well of the plate at 665 nm and 620 nm is measured on an EnVision multilabel plate reader (Perkin-Elmer).
The normalized fluorescence signal is calculated for each sample, Blank and vehicle control well by dividing the signal at 665 nm by the signal at 620 nm. Normalizing the signal accounts for possible fluorescence quenching due to the matrix effect of the lysate. The ΔF value (a measurement of Smn protein abundance as a percent value) for each sample well is calculated by subtracting the normalized average fluorescence for the Blank control wells from the normalized fluorescence for each sample well, then dividing this difference by the normalized average fluorescence for the Blank control wells and multiplying the resulting value by 100. The ΔF value for each sample well represents the Smn protein abundance from test compound-treated samples. The ΔF value for each sample well is divided by the ΔF value for the vehicle control wells to calculate the fold increase in Smn protein abundance relative to the vehicle control.

Compound	melting point [°C]	EC (1.5-fold) [1] [µM]	maximum fold (Fold) increase of Smn protein (Smn protein)
O=c1oc(-c2nc3ccccc3s2)cc2ccc(N3CCNCC3)cc12 [Cpd 8, 3-(1,3-benzothiazol-2-yl)-7-(piperazin-1-yl)-1H-isochromen-1-one]	324 to 326	3 to 30	* (A maximum fold increase of ≦1.2 is indicated by one star (*))
C[C@@H]1CN(c2ccc3cc(-c4nc5ccccc5s4)oc(=O)c3c2)C[C@H](C)N1 [Cpd 9, 3-(1,3-benzothiazol-2-yl)-7-[(3R,5S)-3,5-dimethylpiperazin-1-yl]-1H-isochromen-1-one]	310 to 312	3 to 30	* (A maximum fold increase of ≦1.2 is indicated by one star (*))
O=c1oc(-c2nc3ccccc3s2)cc2ccc(N3CCCNCC3)cc12 [Cpd 10, 3-(1,3-benzothiazol-2-yl)-7-(1,4-diazepan-1-yl)-1H-isochromen-1-one]	277 to 279	1 to 3	* (A maximum fold increase of ≦1.2 is indicated by one star (*))
CN1CCCN(c2ccc3cc(-c4nc5ccccc5s4)oc(=O)c3c2)CC1 [Cpd 11, 3-(1,3-benzothiazol-2-yl)-7-(4-methyl-1,4-diazepan-1-yl)-1H-isochromen-1-one]	270 to 272	0.3 to 1	* (A maximum fold increase of ≦1.2 is indicated by one star (*))
CN1CCN(c2ccc3cc(-c4ccc5c(c4)OCO5)oc(=O)c3c2)CC1 [Cpd 15, 3-(1,3-benzodioxol-5-yl)-7-(4-methylpiperazin-1-yl)-1H-isochromen-1-one]	297 to 299	3 to 30	* (A maximum fold increase of ≦1.2 is indicated by one star (*))
COc1ccc(-c2cc3ccc(N4C[C@@H](C)N[C@@H](C)C4)cc3c(=O)o2)cc1OC [Cpd 17, 3-(3,4-dimethoxyphenyl)-7-[(3R,5S)-3,5-dimethylpiperazin-1-yl]-1H-isochromen-1-one]	309 to 311	0.3 to 1	*** (a fold increase between >1.35 and ≦1.5 is indicated by three stars (***))
COc1cccc(-c2cc3ccc(N4CCN(C)CC4)cc3c(=O)o2)c1 [Cpd 19, 3-(3-methoxyphenyl)-7-(4-methylpiperazin-1-yl)-1H-isochromen-1-one]	140 to 142	3 to 30	* (A maximum fold increase of ≦1.2 is indicated by one star (*))
COc1cccc(-c2cc3ccc(N4C[C@@H](C)N[C@@H](C)C4)cc3c(=O)o2)c1 [Cpd 20, 7-[(3R,5S)-3,5-dimethylpiperazin-1-yl]-3-(3-methoxyphenyl)-1H-isochromen-1-one]	195 to 197	3 to 30	* (A maximum fold increase of ≦1.2 is indicated by one star (*))
COc1ccccc1-c1cc2ccc(N3CCN(C)CC3)cc2c(=O)o1 [Cpd 22, 3-(2-methoxyphenyl)-7-(4-methylpiperazin-1-yl)-1H-isochromen-1-one]	118 to 120	1 to 3	* (A maximum fold increase of ≦1.2 is indicated by one star (*))

Continued, in another order:

melting point [°C]	Compound	EC (1.5-fold) [1] [µM]	maximum fold (Fold) increase of Smn protein (Smn protein)
220 to 222	O=c1oc(-c2ccc3c(c2)OC(F)(F)O3)cc2ccc(N3CCNCC3)cc12 [Cpd 6, 3-(2,2-difluoro-1,3-benzodioxol-5-yl)-7-(piperazin-1-yl)-1H-isochromen-1-one]	1 to 3	* (A maximum fold increase of ≦1.2 is indicated by one star (*))
175 to 177	CN1CCCN(c2ccc3cc(-c4ccc5c(c4)OC(F)(F)O5)oc(=O)c3c2)CC1 [Cpd 7, 3-(2,2-difluoro-1,3-benzodioxol-5-yl)-7-(4-methyl-1,4-diazepan-1-yl)-1H-isochromen-1-one]	1 to 3	* (A maximum fold increase of ≦1.2 is indicated by one star (*))
267 to 269	O=c1oc(-c2ccc3c(c2)OCO3)cc2ccc(N3CCNCC3)cc12 [Cpd 12, 3-(1,3-benzodioxol-5-yl)-7-(piperazin-1-yl)-1H-isochromen-1-one]	0.3 to 1	** (a fold increase between >1.2 and ≦1.35 is indicated by two stars (**))
253 to 255	O=c1oc(-c2ccc3c(c2)OCCO3)cc2ccc(N3CCNCC3)cc12 [Cpd 13, 3-(2,3-dihydro-1,4-benzodioxin-6-yl)-7-(piperazin-1-yl)-1H-isochromen-1-one]	1 to 3	* (A maximum fold increase of ≦1.2 is indicated by one star (*))
200 to 202	O=c1oc(-c2cc(F)cc(F)c2)cc2ccc(N3CCNCC3)cc12 [Cpd 14, 3-(3,5-difluorophenyl)-7-(piperazin-1-yl)-1H-isochromen-1-one]	1 to 3	** (a fold increase between >1.2 and ≦1.35 is indicated by two stars (**))
140 to 142	COc1cccc(-c2cc3ccc(N4CCNCC4)cc3c(=O)o2)c1 [Cpd 18, 3-(3-methoxyphenyl)-7-(piperazin-1-yl)-1H-isochromen-1-one]	0.3 to 1	* (A maximum fold increase of ≦1.2 is indicated by one star (*))
148 to 150	COc1cccc(-c2cc3ccc(N4CCCNCC4)cc3c(=O)o2)c1 [Cpd 21, 7-(l,4-diazepan-1-yl)-3-(3-methoxyphenyl)-1H-isochromen-1-one]	3 to 30	* (A maximum fold increase of ≦1.2 is indicated by one star (*))
